Test results from patent US20090137664A1, “SAURURUS CERNUUS COMPOUNDS THAT INHIBIT CELLULAR RESPONSES TO HYPOXIA” (priority 2003, published 2009).

Tests used:
OVCAR-8 = experiment: NCI in vitro cell line screen (SRB), Ovarian Cancer OVCAR-8; assay type: cell-based
Method: (§1) For exemplary purposes, an embodiment of the present invention was tested for activity with respect to certain cancer cell lines. The following Tables show results from in vitro 60-cell line antitumor testing from the US National Cancer Institute Developmental Therapeutics Program (NCI-DTP) on compound 2. The testing was in connection with the NCI's In Vitro Cell Line Screening Project (IVCLSP). Detailed information regarding the experiments and their interpretation is available from the NCI.

NCI-H226 = experiment: NCI in vitro cell line screen (SRB), Non-Small Cell Lung Cancer NCI-H226; assay type: cell-based
Method: as §1

TK-10 = experiment: NCI in vitro cell line screen (SRB), Renal Cancer TK-10; assay type: cell-based
Method: as §1

HCT-15 = experiment: NCI in vitro cell line screen (SRB), Colon Cancer HCT-15; assay type: cell-based
Method: as §1

secreted VEGF protein = experiment: hypoxic induction of secreted VEGF protein in T47D cells (ELISA); assay type: cell-based, human
Method: The effects of compounds 1 and 2 on hypoxic induction of secreted VEGF protein are examined in T47D cells. Exponentially grown T47D cells are plated at the density of 30,000 cells/well into 96-well plates. Compound treatment and hypoxic exposure are the same as described. Following incubation, the concentration of secreted VEGF protein in the conditioned media is determined by ELISA (R & D Systems) and the data normalized by the number of viable cells. Results shown in FIG. 4 are averages from a representative experiment performed in quadruplicate, the bars represent standard error. An asterisk (*) indicates the level of significance (p<0.01) relative to the hypoxic control, two asterisks (**) (p<0.0001), and no asterisk indicates no statistical difference (ANOVA and Fisher's PLSD post hoc test).
As discussed earlier, one important HIF-1 target gene is VEGF, a key factor for tumor angiogenesis. Compounds that can inhibit both HIF-1 activation and the production of secreted VEGF protein represent potential efficacious chemotherapeutic agents that inhibit both tumor survival and hypoxia induced angiogenesis. The effects of four active examples (compounds 2, 3, 4, and 5) on hypoxic induction of secreted VEGF protein are examined in T47D cells and the data are presented in FIG. 9. Exponentially grown T47D cells are plated at the density of 356,000 cells/well into 12-well plates. Compound treatment and hypoxic exposure are the same as described. Following incubation, the concentration of secreted VEGF protein in the conditioned media is determined by ELISA (R & D Systems) and the data normalized by the number of viable cells. […] Hypoxic exposure leads to a 2-fold increase in the level of secreted VEGF protein. […] The level of significance (p<0.01) is determined by ANOVA and Fisher's PLSD post hoc test. The exemplary compounds 2, 3, and 4 all completely block hypoxic induction of secreted VEGF protein at concentrations as low as 10 nM. The exemplary compound 5 inhibits the hypoxic induction by 60% at 10 nM, and completely blocks at 100 nM. When tested at 100 nM, none of the compounds interfere with the ELISA assay using VEGF standard (no greater than 15% difference).

MDA-MB-435 = experiment: NCI in vitro cell line screen (SRB), Breast Cancer MDA-MB-435; assay type: cell-based
Method: as §1

HIF-1α protein = experiment: Western blot, hypoxic induction of nuclear HIF-1α protein in T47D cells; assay type: cell-based, human; settings: T47D nuclear extract, hypoxia 4 hr
Method: Due to the low abundance of HIF-1α protein in whole cell extract, nuclear extract is prepared and the level of HIF-1α protein in the nuclear extract determined by Western blot. Briefly, exponentially grown T47D cells are exposed to compound 2 for 30 minutes. […] Nuclear extracts are prepared from control and treated cells, separated on a SDS/PAGE gel, the separated proteins transferred to a nitrocellulose membrane, incubated with the primary antibodies (anti-HIF-1α, and anti-HIF-1β monoclonal antibodies, Novus Biologicals), secondary antibody biotinylated anti-mouse immunoglobulin G and Vectastain ABC reagent (Vector Laboratories), and developed using ECL reagents (Amersham Biosciences). […] No change in HIF-1β protein level is observed across the treatments. It is reasonable to conclude that the selectivity of compound 2 towards hypoxia-activated HIF-1 is caused by selective blockade of the hypoxic induction of HIF-1 protein.
To investigate the mechanism of action, the effects of these compounds on hypoxic stabilization of HIF-1α protein are examined in T47D cells using Western blot.

[1] = Homo sapiens, read-out: LC50 (the source's name)

With `COc1ccc([C@@H](O)[C@@H](C)Oc2ccc([C@H]3O[C@H](c4ccc(O[C@H](C)[C@H](O)c5ccc6c(c5)OCO6)c(OC)c4)[C@H](C)[C@H]3C)cc2OC)cc1OC` [Compound 2, manassantin B] the TGI (OVCAR-8) was >1.00E−4 Molar, the GI50 (OVCAR-8; Homo sapiens) was 23.7 µM and the CC50 (OVCAR-8; [1]) was > 100 µM. The “Mean Optical Densities” value (OVCAR-8; Log10 Concentration −4.0 Molar) was 0.873, the “Percent Growth” value (OVCAR-8; Log10 Concentration −4.0 Molar) was 46% and the “Mean Optical Densities” value (OVCAR-8; Log10 Concentration −5.0 Molar) was 0.952. For the same compound, the “Percent Growth” value (OVCAR-8; Log10 Concentration −5.0 Molar) was 53%, the “Mean Optical Densities” value (OVCAR-8; Log10 Concentration −6.0 Molar) was 1.298 and the “Percent Growth” value (OVCAR-8; Log10 Concentration −6.0 Molar) was 82%. The “Mean Optical Densities” value (OVCAR-8; Log10 Concentration −7.0 Molar) was 1.092, the “Percent Growth” value (OVCAR-8; Log10 Concentration −7.0 Molar) was 65% and the “Mean Optical Densities” value (OVCAR-8; Log10 Concentration −8.0 Molar) was 1.311. The “Percent Growth” value (OVCAR-8; Log10 Concentration −8.0 Molar) was 83%, the TGI (NCI-H226) was 1.77E−5 Molar and the GI50 (NCI-H226; Homo sapiens) was 0.483 µM. For the same compound, the LC50 (concentration killing 50% of cells) (NCI-H226; Homo sapiens) was > 100 µM, the “Mean Optical Densities” value (NCI-H226; Log10 Concentration −4.0 Molar) was 0.559 and the “Percent Growth” value (NCI-H226; Log10 Concentration −4.0 Molar) was −16%. For the same compound, the “Mean Optical Densities” value (NCI-H226; Log10 Concentration −5.0 Molar) was 0.678, the “Percent Growth” value (NCI-H226; Log10 Concentration −5.0 Molar) was 5% and the “Mean Optical Densities” value (NCI-H226; Log10 Concentration −6.0 Molar) was 0.765. For the same compound, the “Percent Growth” value (NCI-H226; Log10 Concentration −6.0 Molar) was 36%, the “Mean Optical Densities” value (NCI-H226; Log10 Concentration −7.0 Molar) was 0.885 and the “Percent Growth” value (NCI-H226; Log10 Concentration −7.0 Molar) was 79%. The “Mean Optical Densities” value (NCI-H226; Log10 Concentration −8.0 Molar) was 0.822, the “Percent Growth” value (NCI-H226; Log10 Concentration −8.0 Molar) was 57% and the TGI (TK-10) was >1.00E−4 Molar. The GI50 (TK-10; Homo sapiens) was 4.15 µM, the CC50 (TK-10; [1]) was > 100 µM and the “Mean Optical Densities” value (TK-10; Log10 Concentration −4.0 Molar) was 1.117. For the same compound, the “Percent Growth” value (TK-10; Log10 Concentration −4.0 Molar) was 16%, the “Mean Optical Densities” value (TK-10; Log10 Concentration −5.0 Molar) was 1.163 and the “Percent Growth” value (TK-10; Log10 Concentration −5.0 Molar) was 22%. The “Mean Optical Densities” value (TK-10; Log10 Concentration −6.0 Molar) was 1.674, the “Percent Growth” value (TK-10; Log10 Concentration −6.0 Molar) was 95% and the “Mean Optical Densities” value (TK-10; Log10 Concentration −7.0 Molar) was 1.684. The “Percent Growth” value (TK-10; Log10 Concentration −7.0 Molar) was 97%, the “Mean Optical Densities” value (TK-10; Log10 Concentration −8.0 Molar) was 1.707 and the “Percent Growth” value (TK-10; Log10 Concentration −8.0 Molar) was 100%. For the same compound, the TGI (HCT-15) was >1.00E−4 Molar, the GI50 (HCT-15; Homo sapiens) was 4.91 µM and the CC50 (HCT-15; [1]) was > 100 µM. For the same compound, the “Mean Optical Densities” value (HCT-15; Log10 Concentration −4.0 Molar) was 0.319, the “Percent Growth” value (HCT-15; Log10 Concentration −4.0 Molar) was 26% and the “Mean Optical Densities” value (HCT-15; Log10 Concentration −5.0 Molar) was 0.400. For the same compound, the “Percent Growth” value (HCT-15; Log10 Concentration −5.0 Molar) was 38%, the “Mean Optical Densities” value (HCT-15; Log10 Concentration −6.0 Molar) was 0.660 and the “Percent Growth” value (HCT-15; Log10 Concentration −6.0 Molar) was 77%. For the same compound, the “Mean Optical Densities” value (HCT-15; Log10 Concentration −7.0 Molar) was 0.691, the “Percent Growth” value (HCT-15; Log10 Concentration −7.0 Molar) was 82% and the “Mean Optical Densities” value (HCT-15; Log10 Concentration −8.0 Molar) was 0.683. For the same compound, the “Percent Growth” value (HCT-15; Log10 Concentration −8.0 Molar) was 80%, the “inhibition of VEGF protein levels relative to the hypoxia-induced positive control” value (secreted VEGF protein; 12-well, p<0.01) was “significantly inhibit” and the “reduction of secreted VEGF protein induced by hypoxia” value (secreted VEGF protein; 96-well, 1 at 100 nM, 2 at 10 nM, PD98059 at 100 μM) was “statistically significant reduction”. For the same compound, the “relative potency in reducing the level of secreted VEGF protein” value (secreted VEGF protein; hypoxia) was “ten times more potent than 1”, the TGI (MDA-MB-435) was >1.00E−4 Molar and the GI50 (MDA-MB-435; Homo sapiens) was 1.88 µM. The CC50 (MDA-MB-435; [1]) was > 100 µM, the “Mean Optical Densities” value (MDA-MB-435; Log10 Concentration −4.0 Molar) was 0.534 and the “Percent Growth” value (MDA-MB-435; Log10 Concentration −4.0 Molar) was 1%. The “Mean Optical Densities” value (MDA-MB-435; Log10 Concentration −5.0 Molar) was 0.605, the “Percent Growth” value (MDA-MB-435; Log10 Concentration −5.0 Molar) was 10% and the “Mean Optical Densities” value (MDA-MB-435; Log10 Concentration −6.0 Molar) was 1.079. For the same compound, the “Percent Growth” value (MDA-MB-435; Log10 Concentration −6.0 Molar) was 65%, the “Mean Optical Densities” value (MDA-MB-435; Log10 Concentration −7.0 Molar) was 1.179 and the “Percent Growth” value (MDA-MB-435; Log10 Concentration −7.0 Molar) was 77%. For the same compound, the “Mean Optical Densities” value (MDA-MB-435; Log10 Concentration −8.0 Molar) was 1.122, the “Percent Growth” value (MDA-MB-435; Log10 Concentration −8.0 Molar) was 70% and the “hypoxic induction of HIF-1α protein” value (HIF-1α protein) was “specifically inhibits”.
